Experimental data taken from patent EP0816361A2, “Preparation of substituted alkenoic acids” (ELI LILLY AND COMPANY, priority 1996, dated 1998).

Test system: TXA2 agonist activity
Experiment: Absence of Agonist Activity (pressor response in pithed rats)
Assay type: in vivo

pressor response (i.v. administration, doses up to 10 mg/kg) | mean arterial pressure (one minute after dosing at 0.1 mg/kg i.v.) | SMILES
absence of a pressor response | – | O=C(O)CCCC/C=C(\c1ccc(-c2nc(C(=O)NCCCCC3CCCCC3)co2)cc1)c1cccnc1 [Example 2, (E)-7-[4-[4-[[(4-Cyclohexylbutyl)amino]carbonyl]-2-oxazolyl]phenyl]-7-(3-pyridyl)hept-6-enoic Acid]
– | transient, but significant, increase | O=C(O)CCC/C=C\C[C@H]1[C@@H]2CC[C@@H](C2)[C@@H]1NS(=O)(=O)c1ccccc1 [Example S-145]
